Source: US11136308B2, “Substituted quinazoline and quinazolinone compounds and methods of use thereof” (Araxes Pharma LLC, priority 2017, dated 2021)

Target: T1, KRAS G12C 1-169, his-tagged protein, GDP-loaded (Homo sapiens, UniProt P01116, G12C)
T1 construct: KRAS G12C 1-169, his-tagged protein, GDP-loaded; His tag
Test: Biochemical assay: covalent binding to KRAS G12C measured by mass spectrometry (RapidFire/TOF or Q-Exactive)
Conditions: covalent binding to KRAS G12C after a thirty minute incubation period
Description: Test compounds were prepared as 10 mM stock solutions in DMSO (Fisher cat #BP-231-100). KRAS G12C 1-169, his-tagged protein, GDP-loaded was diluted to 0.5 μM in buffer (20 mM Hepes, 150 mM NaCl, 1 mM MgCl2). Compounds were tested for activity as follows:
Compounds were diluted to 50× final test concentration in DMSO in 96-well storage plates. Compound stock solutions were vortexed before use and observed carefully for any sign of precipitation. Dilutions were as follow: • For 100 μM final compound concentration, compounds were diluted to 5000 μM (5 μL 10 mM compound stock+5 μL DMSO and mixed well by pipetting. • For 30 μM final compound concentration, compounds were diluted to 1500 μM (3 μL 10 mM compound stock+17 μL DMSO) and mixed well by pipetting. • For 10 μM final compound concentration, compounds were diluted to 500 μM (2 μL 10 mM compound stock+38 μL DMSO) and mixed well by pipetting. 49 μL of the stock protein solution was added to each well of a 96-well PCR plate (Fisher cat #1423027). 1 μl of the diluted 50× compounds were added to appropriate wells in the PCR plate using 12-channel pipettor. Reactions were mixed carefully and thoroughly by pipetting up/down with a 200 μL multi-channel pipettor. The plate was sealed well with aluminum plate seal, and stored in drawer at room temperature for 10 minutes, 30 minutes, 2 hours or 24 hours. 5 μL of 2% formic acid (Fisher cat #A117) in de-ionized H2O was then added to each well followed by mixing with a pipette. The plate was then resealed with aluminum seal and stored on dry ice until analyzed as described below.
The above described assays were analyzed by mass spectrometry according to one of the following two procedures:
The MS instrument is set to positive polarity, 2 GHz resolution, and low mass (1700) mode and allowed to equilibrate for 30 minutes. The instrument is then calibrated, switched to acquisition mode and the appropriate method loaded.
After another 30 minute equilibration time, a blank batch (i.e., buffer) is run to ensure equipment is operating properly. The samples are thawed at 37° C. for 10 minutes, briefly centrifuged, and transfer to the bench top. Wells A1 and H12 are spiked with 1 μL 500 μM internal standard peptide, and the plates centrifuged at 2000×g for 5 minutes. The method is then run and masses of each individual well recorded.
The masses (for which integration data is desired) for each well are pasted into the platemap and exported from the analysis. Masses for the internal standards are exported as well. The data at 50 ppm is extracted for the +19 charge state, and identity of well A1 is assigned using the internal standard spike and integrated. Peak data is exported as a TOF list and the above steps are repeated individually, for the +20, 21, 22, 23, 24, and 25 charge states.
The masses and peak intensities of KRAS G12C protein species were measured using a Dionex RSLCnano system (Thermo Scientific) connected to a Q Exactive Plus mass spectrometer (Thermo Scientific).
[…] of sample was each loaded onto a Aeris™ 3.6 μm WIDEPORE C4 200 Å, LC Column 50×2.1 mm column maintained at 40° C. at a flow rate of 600 μL/min with 20% Solvent A (0.1% formic acid in H2O) and 80% Solvent B (0.1% formic acid in acetonitrile). The liquid chromatography conditions were 20% solvent B for 1 minute, 20% to 60% solvent B for 1.5 minutes, 60% to 90% solvent for 0.5 minute, 90% solvent B for 0.2 minute, 90% to 20% solvent B for 0.2 minute, and then equilibrated for 1.6 minute before the following sample injection. The flow rate was maintained at 600 μL/min throughout the sample analysis.
The mass spectrometer was operated in profile mode at a resolution of 17500, 5 microscans, using 50 msec max injection time and an AGC target of 1×10^6, and a full mass range from 800-1850 m/z was recorded. The HCD trapping gas was optimized for maximum sensitivity for intact proteins. […]

**Q.** Which Binding % does the source give for `C=CC(=O)N1CC(c2nc3ccc(-c4cc(O)cc5ccccc45)cc3c(=O)[nH]2)C1` [Compound 1, 2-(1-acryloylazetidin-3-yl)-6-(3-hydroxynaphthalen-1-yl)quinazolin-4(3H)-one] here?
**A.** Its Binding % is “++ (++ indicates binding activity from 10 to 50%)”.

**Q.** `C=CC(=O)N1CC(c2nc3ccc(-c4cc(O)cc5ccccc45)cc3c(=O)n2C)C1` [Compound 2, 2-(1-acryloylazetidin-3-yl)-6-(3-hydroxynaphthalen-1-yl)-3-methylquinazolin-4(3H)-one] was tested. Which Binding % did it give?
**A.** The Binding % was “+++ (+++ indicates binding activity greater than 50%)”.

**Q.** For `C=CC(=O)N1CC(c2nc3ccc(-c4c(C)ccc5[nH]ncc45)cc3c(=O)n2C)C1` [Compound 3, 2-(1-acryloylazetidin-3-yl)-3-methyl-6-(5-methyl-1H-indazol-4-yl)quinazolin-4(3H)-one], which Binding % is on record?
**A.** The Binding % was “++ (++ indicates binding activity from 10 to 50%)”.

**Q.** `C=CC(=O)N1CC(c2nc3ccc(-c4cc(O)cc5ccccc45)cc3c(=O)n2CCCN(C)C)C1` [Compound 4, 2-(1-acryloylazetidin-3-yl)-3-(3-(dimethylamino)propyl)-6-(3-hydroxynaphthalen-1-yl)quinazolin-4(3H)-one] was tested. Which Binding % did it give?
**A.** Its Binding % is “+++ (+++ indicates binding activity greater than 50%)”.

**Q.** How did the Binding % turn out when `C=CC(=O)N1CC(c2nc3ccc(-c4c(C)ccc5[nH]ncc45)cc3c(=O)n2CCCN(C)C)C1` [Compound 5, 2-(1-acryloylazetidin-3-yl)-3-(3-(dimethylamino)propyl)-6-(5-methyl-1H-indazol-4-yl)quinazolin-4(3H)-one] was run?
**A.** Its Binding % is “++ (++ indicates binding activity from 10 to 50%)”.

**Q.** For `C=CC(=O)N1CC(c2nc3ccc(-c4cccc5[nH]nc(I)c45)cc3c(=O)n2CCCN(C)C)C1` [Compound 6, 2-(1-acryloylazetidin-3-yl)-3-(3-(dimeth-ylamino)propyl)-6-(3-iodo-1H-indazol-4-yl)quinazolin-4(3H)-one], which Binding % is on record?
**A.** The Binding % was “+ (+ indicates binding activity up to 10%)”.

**Q.** `C=CC(=O)N1CC(c2nc3ccc(-c4cccc5[nH]nc(C)c45)cc3c(=O)n2CCCN(C)C)C1` [Compound 7, 2-(1-acryloylazetidin-3-yl)-3-(3-(dimeth-ylamino)propyl)-6-(3-methyl-1H-indazol-4-yl)quinazolin-4(3H)-one] was tested. Which Binding % did it give?
**A.** The Binding % was “+ (+ indicates binding activity up to 10%)”.

**Q.** For `C=CC(=O)N1CC(c2nc(NCC(=O)N3CC(N(C)C)C3)c3cc(-c4cc(O)cc5ccccc45)ccc3n2)C1` [Compound 21, 1-(3-(4-((2-(3-(dimethylamino)azetidin-1-yl)-2-oxoethyl)amino)-6-(3-hydroxynaphthalen-1-yl)quinazolin-2-yl)azetidin-1-yl)prop-2-en-1-one], which Binding % is on record?
**A.** The Binding % was “+ (+ indicates binding activity up to 10%)”.

**Q.** With `C=CC(=O)N1CC(Cc2nc3ccc(-c4cc(O)cc5ccccc45)cc3c(=O)n2CCCN(C)C)C1` [Compound 27, 2-((1-acryloylazetidin-3-yl)methyl)-3-(3-(dimethylamino)propyl)-6-(3-hydroxynaphthalen-1-yl)quinazolin-4(3H)-one] as the compound, how does the Binding % read?
**A.** Its Binding % is “+ (+ indicates binding activity up to 10%)”.

**Q.** For `C=CC(=O)N1CC(c2nc(-n3ccnc3)c3cc(-c4cc(O)cc5ccccc45)ccc3n2)C1` [Compound 30, 1-(3-(6-(3-hydroxynaphthalen-1-yl)-4-(1H-imidazol-1-yl)quinazolin-2-yl)azetidin-1-yl)prop-2-en-1-one], which Binding % is on record?
**A.** The Binding % was “+ (+ indicates binding activity up to 10%)”.

**Q.** With `C=CC(=O)N1CC(c2nc(NC3CCN(C4CC4)CC3)c3cc(-c4c(C)ccc5[nH]ncc45)ccc3n2)C1` [Compound 31, 1-(3-(4-((1-cyclopropylpiperi-din-4-yl)amino)-6-(5-methyl-1H-indazol-4-yl)quinazolin-2-yl)azetidin-1-yl)prop-2-en-1-one] as the compound, how does the Binding % read?
**A.** Its Binding % is “+ (+ indicates binding activity up to 10%)”.

**Q.** Which Binding % does the source give for `C=CC(=O)N1CC(c2nc(N3CC(N(C)C)C3)c3cc(-c4c(C)ccc5[nH]ncc45)ccc3n2)C1` [Compound 32, 1-(3-(4-(3-(dimethylamino)aze-tidin-1-yl)-6-(5-methyl-1H-indazol-4-yl)quinazolin-2-yl)azetidin-1-yl)prop-2-en-1-one] here?
**A.** The Binding % was “+ (+ indicates binding activity up to 10%)”.

**Q.** Which Binding % does the source give for `C=CC(=O)N1CC(c2nc(NCCc3ncccn3)c3cc(-c4c(C)ccc5[nH]ncc45)ccc3n2)C1` [Compound 33, 1-(3-(6-(5-methyl-1H-indazol-4-yl)-4-((2-(pyrimidin-2-yl)ethyl)amino)quin-azolin-2-yl)azetidin-1-yl)prop-2-en-1-one] here?
**A.** The Binding % was “+ (+ indicates binding activity up to 10%)”.

**Q.** For `C=CC(=O)N1CC(c2nc(N3CCC(O)C3)c3cc(-c4cc(O)cc5ccccc45)ccc3n2)C1` (centres unmarked) [Compound 34, 1-(3-(6-(3-hydroxynaphthalen-1-yl)-4-(3-hydroxypyrrolidin-1-yl)quinazolin-2-yl)azetidin-1-yl)prop-2-en-1-one], which Binding % is on record?
**A.** The Binding % was “+ (+ indicates binding activity up to 10%)”.
